Measured values taken from patent US10913745B2, “Octahydro-pyrrolo[3,4-c]-pyrrole derivatives and analogs thereof as autotaxin inhibitors” (Hoffmann-La Roche Inc., priority 2013, dated 2021).

biological target: ATX (human His-tagged) (Homo sapiens (Human), UniProt Q13822); assay: Human ATX enzyme inhibition assay (fluorescence quenching, MR121 substrate); type: biochemical; settings: MR121 substrate 1 μM, ATX 30 nM final, 30° C.
Procedure: Human ATX Enzyme Inhibition Assay
ATX inhibition was measured by a fluorescence quenching assay using a specifically labeled substrate analogue (MR121 substrate). To obtain this MR121 substrate, BOC and TBS protected 6-amino-hexanoic acid (R)-3-({2-[3-(2-{2-[2-(2-amino-ethoxy)-ethoxy]-ethoxy}-ethoxy)-propionylamino]-ethoxy}-hydroxy-phosphoryloxy)-2-hydroxy-propyl ester (Ferguson et al., Org Lett 2006, 8 (10), 2023) was labeled with MR121 fluorophore (CAS 185308-24-1, 1-(3-carboxypropyl)-11-ethyl-1,2,3,4,8,9,10,11-octahydro-dipyrido[3,2-b:2′,3′-i]phenoxazin-13-ium) on the free amine of the ethanolamine side and then, after deprotection, subsequently with tryptophan on the side of the aminohexanoic acid. Assay working solutions were made as follows: Assay buffer (50 mM Tris-HCl, 140 mM NaCl, 5 mM KCl, 1 mM CaCl2, 1 mM MgCl2, 0.01% Triton-X-100, pH 8.0; ATX solution: ATX (human His-tagged) stock solution (1.08 mg/mL in 20 mM bicine, pH 8.5, 0.15 M NaCl, 10% glycerol, 0.3% CHAPS, 0.02% NaN3), diluted to 1.4-2.5× final concentration in assay buffer; MR121 substrate solution: MR121 substrate stock solution (800 μM MR121 substrate in DMSO), diluted to 2-5× final concentration in assay buffer. Test compounds (10 mM stock in DMSO, 8 μL) were obtained in 384 well sample plates (Corning Costar #3655) and diluted with 8 μL DMSO. Row-wise serial dilutions were made by transferring 8 μL cpd solution to the next row up to row O. The compound and control solutions were mixed five times and 2 μL were transferred to 384 well assay plates (Corning Costar #3702). Then, 15 μL of 41.7 nM ATX solution was added (30 nM final concentration), mixed five times and then incubated for 15 minutes at 30° C. 10 μL of MR121 substrate solution was added (1 μM final concentration), mixed 30 times and then incubated for 15 minutes at 30° C.

| SMILES | IC50 |
| --- | --- |
| NS(=O)(=O)c1ccc(C(=O)N2C[C@H]3CCN(C(=O)OCc4cc(Cl)cc(Cl)c4)C[C@@H]3C2)cc1 (racemic) [Example 1.03, trans-3,5-dichlorobenzyl 2-(4-sulfamoylbenzoyl)hexahydro-1H-pyrrolo[3,4-c]pyridine-5(6H)-carboxylate] | 0.007 µM |
| CNS(=O)(=O)c1ccc(C(=O)N2C[C@H]3CN(C(=O)OCc4cc(Cl)cc(Cl)c4)C[C@H]3C2)cc1 [Example 1, (3aR,6aS)-3,5-Dichlorobenzyl 5-(4-(N-methylsulfamoyl)benzoyl)hexahydropyrrolo[3,4-c]pyrrole-2(1H)-carboxylate] | 1.16 µM |
| O=C(OCc1cc(Cl)cc(Cl)c1)N1C[C@@H]2CN(C(=O)c3ccc(O)cn3)C[C@@H]2C1 [Example 1.01, (3aR,6aS)-3,5-dichlorobenzyl 5-(5-hydroxypicolinoyl)hexahydropyrrolo[3,4-c]pyrrole-2(1H)-carboxylate] | 0.293 µM |
| O=C(OCc1cc(Cl)cc(Cl)c1)N1C[C@@H]2CN(C(=O)c3ccc(O)cc3)C[C@@H]2C1 [Example 1.02, (3aR,6aS)-3,5-dichlorobenzyl 5-(4-hydroxybenzoyl)hexahydropyrrolo[3,4-c]pyrrole-2(1H)-carboxylate] | 0.444 µM |
| NS(=O)(=O)c1ccc(C(=O)N2C[C@H]3CN(C(=O)OCc4cc(Cl)cc(Cl)c4)C[C@H]3C2)s1 [Example 1.04, (3aR,6aS)-3,5-dichlorobenzyl 5-(5-sulfamoylthiophene-2-carbonyl)hexahydropyrrolo[3,4-c]pyrrole-2(1H)-carboxylate] | 0.008 µM |
| NS(=O)(=O)c1ccc(C(=O)N2C[C@H]3CN(C(=O)OCc4cc(Cl)cc(Cl)c4)C[C@H]3C2)cc1 [Example 1.05, (3aR,6aS)-3,5-dichlorobenzyl 5-(4-sulfamoylbenzoyl)hexahydropyrrolo[3,4-c]pyrrole-2(1H)-carboxylate] | 0.004 µM |
| Nc1ccc(C(=O)N2C[C@H]3CN(C(=O)OCc4cc(Cl)cc(Cl)c4)C[C@H]3C2)cc1 [Example 1.06, (3aR,6aS)-3,5-dichlorobenzyl 5-(4-aminobenzoyl)hexahydropyrrolo[3,4-c]pyrrole-2(1H)-carboxylate] | 0.255 µM |
| Nc1ccc(C(=O)N2C[C@H]3CN(C(=O)OCc4cc(Cl)cc(Cl)c4)C[C@H]3C2)nc1 [Example 1.07, (3aR,6aS)-3,5-dichlorobenzyl 5-(5-aminopicolinoyl)hexahydropyrrolo[3,4-c]pyrrole-2(1H)-carboxylate] | 6.11 µM |
| N#Cc1ccc(C(=O)N2C[C@H]3CN(C(=O)OCc4cc(Cl)cc(Cl)c4)C[C@H]3C2)cc1 [Example 1.08, (3aR,6aS)-3,5-dichlorobenzyl 5-(4-cyanobenzoyl)hexahydropyrrolo[3,4-c]pyrrole-2(1H)-carboxylate] | 1.2 µM |
| COC(=O)c1ccc(C(=O)N2C[C@H]3CN(C(=O)OCc4cc(Cl)cc(Cl)c4)C[C@H]3C2)cc1 [Example 1.09, (3aR,6aS)-3,5-dichlorobenzyl 5-(4-(methoxycarbonyl)benzoyl)hexahydropyrrolo[3,4-c]pyrrole-2(1H)-carboxylate] | 0.118 µM |
| NS(=O)(=O)c1ccc(C(=O)N2C[C@H]3CCN(C(=O)/C=C/c4ccc(OC(F)(F)F)cc4)CC[C@H]3C2)cc1 [Example 1.10, 4-{(3aS,8aR)-6-[(E)-3-(4-trifluoromethoxy-phenyl)-acryloyl]-octahydro-pyrrolo[3,4-d]azepine-2-carbonyl}-benzenesulfonamide] | 0.002 µM |
| NS(=O)(=O)c1ccc(C(=O)N2C[C@H]3CN(C(=O)OCc4ccc(OC(F)(F)F)cc4)C[C@@H]3C2)cc1F [Example 1.11, (3aS,6aS)-5-(3-fluoro-4-sulfamoyl-benzoyl)-hexahydro-pyrrolo[3,4-c]pyrrole-2-carboxylic acid 4-trifluoromethoxy-benzyl ester] | 0.001 µM |

The remaining lines, values ahead:

| IC50 | SMILES |
| --- | --- |
| 0.004 µM | NS(=O)(=O)c1ccc(C(=O)N2C[C@H]3CCN(C(=O)OCc4cc(Cl)cc(Cl)c4)C[C@@H]3C2)cc1 (single isomer, unassigned) [Example 9A, (−)-trans-3,5-Dichlorobenzyl 2-(4-sulfamoylbenzoyl)hexahydro-1H-pyrrolo[3,4-c]pyridine-5(6H)-carboxylate] |
| 0.005 µM | NS(=O)(=O)c1ccc(C(=O)N2C[C@H]3CCN(C(=O)OCc4cc(Cl)cc(Cl)c4)C[C@@H]3C2)cc1 (single isomer, unassigned) [Example 9B, (+)-trans-3,5-dichlorobenzyl 2-(4-sulfamoylbenzoyl)hexahydro-1H-pyrrolo[3,4-c]pyridine-5(6H)-carboxylate] |
| 0.44 µM | O=C(OCc1ccc(OC(F)(F)F)cc1)N1C[C@@H]2CN(C(=O)c3ccc(=O)[nH]c3)C[C@H]2C1 [Example 1.12, (3aS,6aS)-5-(6-oxo-1,6-dihydro-pyridine-3-carbonyl)-hexahydro-pyrrolo[3,4-c]pyrrole-2-carboxylic acid 4-trifluoromethoxy-benzyl ester] |
| 0.001 µM | NS(=O)(=O)c1ccc(C(=O)N2C[C@H]3CN(C(=O)OCc4ccc(OC(F)(F)F)cc4)C[C@@H]3C2)nc1 [Example 1.13, (3aS,6aS)-5-(5-sulfamoyl-pyridine-2-carbonyl)-hexahydro-pyrrolo[3,4-c]pyrrole-2-carboxylic acid 4-trifluoromethoxy-benzyl ester] |
| 0.064 µM | Cn1cc(S(N)(=O)=O)cc1C(=O)N1C[C@H]2CN(C(=O)OCc3ccc(OC(F)(F)F)cc3)C[C@@H]2C1 [Example 1.14, (3 aS,6aS)-5-(1-methyl-4-sulfamoyl-1H-pyrrole-2-carbonyl)-hexahydro-pyrrolo[3,4-c]pyrrole-2-carboxylic acid 4-trifluoromethoxy-benzyl ester] |
| 0.0585 µM | Cn1c(C(=O)N2C[C@H]3CN(C(=O)OCc4ccc(OC(F)(F)F)cc4)C[C@@H]3C2)ccc1S(N)(=O)=O [Example 1.15, (3 aS,6aS)-5-(1-methyl-5-sulfamoyl-1H-pyrrole-2-carbonyl)-hexahydro-pyrrolo[3,4-c]pyrrole-2-carboxylic acid 4-trifluoromethoxy-benzyl ester] |
| 0.025 µM | O=C(OCc1ccc(OC(F)(F)F)cc1)N1C[C@@H]2CN(C(=O)c3ccc(O)cn3)C[C@H]2C1 [Example 1.17, (3aS,6aS)-5-(5-hydroxy-pyridine-2-carbonyl)-hexahydro-pyrrolo[3,4-c]pyrrole-2-carboxylic acid 4-trifluoromethoxy benzyl ester] |
| 0.013 µM | O=C(OCc1ccc(OC(F)(F)F)cc1)N1C[C@@H]2CN(C(=O)c3ccc(O)cc3)C[C@H]2C1 [Example 1.18, (3aS,6aS)-5-(4-hydroxy-benzoyl)-hexahydro-pyrrolo[3,4-c]pyrrole-2-carboxylic acid 4-trifluoromethoxy-benzyl ester] |
| 0.004 µM | NS(=O)(=O)c1ccc(C(=O)N2C[C@H]3CN(C(=O)OCc4ccc(OC(F)(F)F)cc4)C[C@@H]3C2)c(F)c1 [Example 1.19, (3 aS,6aS)-5-(2-fluoro-4-sulfamoyl-benzoyl)-hexahydro-pyrrolo[3,4-c]pyrrole-2-carboxylic acid 4-trifluoromethoxy-benzyl ester] |
| 0.019 µM | NS(=O)(=O)c1ccc(C(=O)N2C[C@H]3CN(C(=O)CCc4ccc(OC(F)(F)F)cc4)C[C@@H]3C2)cn1 [Example 1.20, 5-{(3 aR,6aR)-5-[3-(4-trifluoromethoxy-phenyl)-propionyl]-hexahydro-pyrrolo[3,4-c]pyrrole-2-carbonyl}-pyridine-2-sulfonic acid amide] |
| 0.118 µM | CCOc1cc(C(=O)N2C[C@@H]3CN(C(=O)c4ccc(S(N)(=O)=O)nc4)C[C@H]3C2)nc2ccccc12 [Example 1.21, 5-((3 aS,6aS)-5-(4-ethoxyquinoline-2-carbonyl)octahydropyrrolo[3,4-c]pyrrole-2-carbonyl)pyridine-2-sulfonamide] |
| 0.007 µM | CC(C)(C)C(=O)Nc1cc(C#N)ccc1COC(=O)N1C[C@@H]2CN(C(=O)c3ccc(S(N)(=O)=O)c(F)c3)C[C@H]2C1 [Example 1.22, (3aS,6aS)-5-(3-fluoro-4-sulfamoyl-benzoyl)-hexahydro-pyrrolo[3,4-c]pyrrole-2-carboxylic acid 4-cyano-2-(2,2-dimethyl-propionylamino)-benzyl ester] |
| 0.004 µM | CC(C)(C)C(=O)Nc1cc(C#N)ccc1COC(=O)N1C[C@@H]2CN(C(=O)c3ccc(S(N)(=O)=O)nc3)C[C@H]2C1 [Example 1.23, (3aS,6aS)-5-(6-sulfamoyl-pyridine-3-carbonyl)-hexahydro-pyrrolo[3,4-c]pyrrole-2-carboxylic acid 4-cyano-2-(2,2-dimethyl-propionylamino)-benzyl ester] |
